Where two headings read alike, the source gives them in different places.
Tests used:
[1] = Trans-enterocyte transport of CA in Caco-2 cell monolayer; format: in vitro ADME, human; conditions: human
Experimental: (§1) Caco-2 were cultured in EMEM complete medium containing 10% FBS, 1% non-essential amino acids, and 1% penicillin-streptomycin double antibody, and the culture conditions were 37 °C, 5% CO2, in a constant temperature incubator [16]. We first established non-toxic dose ranges of CA in Caco-2 cells using MTT assay. Dimethylsulfoxide (DMSO) was used as the vehicle to deliver CA to the cells. The final concentration of DMSO in all experiments was 0.1% (v/v) in cell culture media. Caco-2 cells were seeded in a 96-well plate at a cell density of 5 × 10^4 cells/mL per well, and cultured under 5% CO2 and 37 °C for 24 h. A quantity of 200 μL of medium was added to each well to obtain a series of CA solutions (concentrations of 25, 50, 75, and 100 μmoL). After 48 h of treatment, Caco-2 cells were subjected to the MTT assay as described previously. For the transport study, Caco-2 cells were seeded on the apical compartment (AP) of 12-well Transwell plates at a density of 2 × 10^5 cells/mL. The complete culture medium was added into basolateral (BL) and AP compartments. The basolateral medium was replaced every other day.
(§2) CA was dissolved in HBSS solution at 50, 75, and 100 μM. The HBSS solution containing CA combined with 0.5% Tween 80, 5 mmol/L EDTA or 5% PEG 400 was prepared. The cumulative migration (Qr), apparent permeability coefficient (Papp), and the Papp value of bi-direction transport of CA were calculated according to formulas.
(§3) The 0.5 mL […] containing different concentrations of CA was added to the AP side of the 12-well Transwell plate, and 1.5 mL HBSS solution was added to the BL side. At 0, 0.5, 1, 1.5, 2, 2.5, and 3 h, 0.2 mL medium was taken from the BL side and stored at −80 °C. The TEER value of each Transwell chamber was measured.
(§4) The cryopreserved Transwell samples were transferred to a 15 mL centrifuge tube, and any remaining liquid was fully washed using 1 mL of 50% methanol solution which was also transferred to the 15 mL centrifuge tube. The mixture was vortexed for 1 min, and 6 mL of ethyl acetate solution was added to the tube and vortexed for another 2 min. The mixture was centrifuged at 6000 rpm/min at 4 °C for 10 min. The supernatant was dried under vacuum, dissolved in 5% phosphoric acid methanol solution, and filtered through a 0.22 μm microporous membrane. The concentration of CA was determined by HPLC as described above.

Caco-2 cell monolayer = experiment: as above; format: in vitro ADME, human; conditions: CA 50–100 μM
Experimental: as §1, §2, §3, §4

[2] = Caco-2, CA 75 μM, Average of 0.5-3.0 h
[3] = Caco-2, CA 100 μM, Average of 0.5-3.0 h

CC(C)c1cc2c(c(O)c1O)[C@@]1(C(=O)O)CCCC(C)(C)[C@@H]1CC2 [CA, Carnosic acid]
Papp A→B at 2.5 h, 75 μM ([1]; Caco-2, CA 75 μM, 2.5 h, read-out: Papp AP-BL): 0.83 ± 0.01 ×10⁻⁶ cm/s | Papp B→A at 3 h, 75 μM ([1]; Caco-2, CA 75 μM, 3.0 h): 0.38 ± 0.03 ×10⁻⁶ cm/s | efflux ratio at 3 h, 75 μM ([1]; Caco-2, CA 75 μM, 3.0 h): 0.61 | Papp A→B at 3 h, 75 μM ([1]; Caco-2, CA 75 μM, 3.0 h, CA alone, read-out: Papp AP to BL): 0.62 ± 0.01 ×10⁻⁶ cm/s | Papp A→B at 3 h, 75 μM ([1]; Caco-2, CA 75 μM, 3.0 h, read-out: Papp AP-BL): 0.62 ± 0.01 ×10⁻⁶ cm/s | Papp B→A at 75 μM [1, 2]: 0.66 ± 0.06 ×10⁻⁶ cm/s | efflux ratio at 75 μM [1, 2]: 0.63 | Papp A→B at 75 μM ([1]; Caco-2, CA 75 μM, Average of 0.5-3.0 h, CA alone, read-out: Papp AP to BL): 1.04 ± 0.02 ×10⁻⁶ cm/s | Papp A→B at 75 μM ([1]; Caco-2, CA 75 μM, Average of 0.5-3.0 h, read-out: Papp AP-BL): 1.04 ± 0.05 ×10⁻⁶ cm/s | Papp B→A at 0.5 h, 100 μM ([1]; Caco-2, CA 100 μM, 0.5 h): 0.39 ± 0.03 ×10⁻⁶ cm/s | efflux ratio at 0.5 h, 100 μM ([1]; Caco-2, CA 100 μM, 0.5 h): 0.35 | Papp A→B at 0.5 h, 100 μM ([1]; Caco-2, CA 100 μM, 0.5 h, CA alone, read-out: Papp AP to BL): 1.1 ± 0.1 ×10⁻⁶ cm/s | Papp A→B at 0.5 h, 100 μM ([1]; Caco-2, CA 100 μM, 0.5 h, read-out: Papp AP-BL): 1.1 ± 0.1 ×10⁻⁶ cm/s | Papp B→A at 1 h, 100 μM ([1]; Caco-2, CA 100 μM, 1.0 h): 0.56 ± 0.04 ×10⁻⁶ cm/s | efflux ratio at 1 h, 100 μM ([1]; Caco-2, CA 100 μM, 1.0 h): 0.42 | Papp A→B at 1 h, 100 μM ([1]; Caco-2, CA 100 μM, 1.0 h, CA alone, read-out: Papp AP to BL): 1.32 ± 0.09 ×10⁻⁶ cm/s | Papp A→B at 1 h, 100 μM ([1]; Caco-2, CA 100 μM, 1.0 h, read-out: Papp AP-BL): 1.32 ± 0.09 ×10⁻⁶ cm/s | Papp B→A at 1.5 h, 100 μM ([1]; Caco-2, CA 100 μM, 1.5 h): 2.53 ± 0.03 ×10⁻⁶ cm/s | efflux ratio at 1.5 h, 100 μM ([1]; Caco-2, CA 100 μM, 1.5 h): 1.07 | Papp A→B at 1.5 h, 100 μM ([1]; Caco-2, CA 100 μM, 1.5 h, CA alone, read-out: Papp AP to BL): 2.36 ± 0.08 ×10⁻⁶ cm/s | Papp A→B at 1.5 h, 100 μM ([1]; Caco-2, CA 100 μM, 1.5 h, read-out: Papp AP-BL): 2.36 ± 0.08 ×10⁻⁶ cm/s | Papp B→A at 2 h, 100 μM ([1]; Caco-2, CA 100 μM, 2.0 h): 1.33 ± 0.05 ×10⁻⁶ cm/s | Papp A→B at 2 h, 100 μM ([1]; Caco-2, CA 100 μM, 2.0 h, CA alone, read-out: Papp AP to BL): 0.87 ± 0.02 ×10⁻⁶ cm/s | efflux ratio at 2 h, 100 μM ([1]; Caco-2, CA 100 μM, 2.0 h, read-out: Efflux Ratio): 1.52 | Papp A→B at 2 h, 100 μM ([1]; Caco-2, CA 100 μM, 2.0 h, read-out: Papp AP-BL): 0.87 ± 0.02 ×10⁻⁶ cm/s | Papp B→A at 2.5 h, 100 μM ([1]; Caco-2, CA 100 μM, 2.5 h): 1.45 ± 0.01 ×10⁻⁶ cm/s | efflux ratio at 2.5 h, 100 μM ([1]; Caco-2, CA 100 μM, 2.5 h): 1.7 | Papp A→B at 2.5 h, 100 μM ([1]; Caco-2, CA 100 μM, 2.5 h, CA alone, read-out: Papp AP to BL): 0.85 ± 0.05 ×10⁻⁶ cm/s | Papp A→B at 2.5 h, 100 μM ([1]; Caco-2, CA 100 μM, 2.5 h, read-out: Papp AP-BL): 0.85 ± 0.05 ×10⁻⁶ cm/s | Papp B→A at 3 h, 100 μM ([1]; Caco-2, CA 100 μM, 3.0 h): 1.23 ± 0.03 ×10⁻⁶ cm/s | efflux ratio at 3 h, 100 μM ([1]; Caco-2, CA 100 μM, 3.0 h): 1.53 | Papp A→B at 3 h, 100 μM ([1]; Caco-2, CA 100 μM, 3.0 h, CA alone, read-out: Papp AP to BL): 0.8 ± 0.09 ×10⁻⁶ cm/s | Papp A→B at 3 h, 100 μM ([1]; Caco-2, CA 100 μM, 3.0 h, read-out: Papp AP-BL): 0.8 ± 0.09 ×10⁻⁶ cm/s | Papp B→A at 100 μM [1, 3]: 1.24 ± 0.04 ×10⁻⁶ cm/s | efflux ratio at 100 μM [1, 3]: 1.03 | Papp A→B at 100 μM ([1]; Caco-2, CA 100 μM, Average of 0.5-3.0 h, CA alone, read-out: Papp AP to BL): 1.21 ± 0.03 ×10⁻⁶ cm/s | Papp A→B at 100 μM ([1]; Caco-2, CA 100 μM, Average of 0.5-3.0 h, read-out: Papp AP-BL): 1.2 ± 0.07 ×10⁻⁶ cm/s | efflux ratio at 2 h, 100 μM ([1]; Caco-2, CA 100 μM, after 2-hour incubation, read-out: efflux ratios): 1.52 to 1.7 | efflux ratio ([1]; Caco-2, CA 50 and 75 μM, except 50 μM after 3-hour incubation, read-out: efflux ratios): < 1 | Papp A→B at 1 h, 75 μM ([1]; Caco-2, CA 75 μM, 1.0 h): 1.08 ± 0.04 ×10⁻⁶ cm/s | Papp B→A at 1 h, 75 μM ([1]; Caco-2, CA 75 μM, 1.0 h): 0.86 ± 0.05 ×10⁻⁶ cm/s | efflux ratio at 1 h, 75 μM ([1]; Caco-2, CA 75 μM, 1.0 h): 0.79 | Papp ([1]; Caco-2, CA 50–100 μM, 0.5-3 h, read-out: Papp values in both the AP-BL and BL-AP directions): 0.12 to 2.53 ×10⁻⁶ cm/s | permeability classification (Caco-2 cell monolayer): moderately permeable
